Test results as given in BindingDB's records for doi:10.7270/Q20863RR (Nmmlsc, 2010).

Target: T1, Regulator of G-protein signaling 7 (Homo sapiens, UniProt P49802)
T1 sequence (P49802 whole entry): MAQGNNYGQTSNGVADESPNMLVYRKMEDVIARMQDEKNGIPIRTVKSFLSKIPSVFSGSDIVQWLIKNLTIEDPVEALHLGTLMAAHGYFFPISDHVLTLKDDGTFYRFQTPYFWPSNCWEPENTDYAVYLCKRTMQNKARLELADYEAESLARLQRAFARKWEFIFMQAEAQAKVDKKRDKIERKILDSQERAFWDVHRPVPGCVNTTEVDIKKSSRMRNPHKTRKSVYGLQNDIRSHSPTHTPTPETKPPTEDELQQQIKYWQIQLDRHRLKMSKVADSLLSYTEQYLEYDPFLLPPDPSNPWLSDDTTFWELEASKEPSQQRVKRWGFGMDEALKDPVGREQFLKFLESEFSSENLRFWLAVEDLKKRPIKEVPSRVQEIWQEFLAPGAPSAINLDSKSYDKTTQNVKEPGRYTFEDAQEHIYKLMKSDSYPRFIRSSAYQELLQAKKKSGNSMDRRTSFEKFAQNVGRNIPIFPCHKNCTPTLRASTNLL
Assay: RGS7-Galphao binding modulators, SAR follow-up, biochemical, multiplexed bead flow cytometry, SAR compounds (AID 2296)

NS(=O)(=O)c1ccc(N=NCc2ccc(O)c(O)c2O)c([N+](=O)[O-])c1 [4-[[(E)-(2,3-dihydroxy-4-oxo-1-cyclohexa-2,5-dienylidene)methyl]hydrazo]-3-nitrobenzenesulfonamide]
Ki: 120 nM
